Assay results published in the supplement of paper PMC8967900.

What was measured:
Experiment in all cases: selective drug sensitivity score (sDSS, relative to normal bone marrow) (sDSS (score)); higher = more potent and effective on the cell line relative to normal bone marrow cells
Conditions in all cases: 72 h
ALL-SIL = tested on: ALL-SIL
COG-LL-317 = tested on: COG-LL-317
COG-LL-319h = tested on: COG-LL-319h
COG-LL-355h = tested on: COG-LL-355h
DND-41 = tested on: DND-41
HPB-ALL = tested on: HPB-ALL
KARPAS-45 = tested on: KARPAS-45
LC4-1 = tested on: LC4-1
MOLT-14 = tested on: MOLT-14
MOLT-16 = tested on: MOLT-16
MOLT-4 = tested on: MOLT-4
NALM-6 = tested on: NALM-6
P12-ICHIKAWA = tested on: P12-ICHIKAWA
PEER = tested on: PEER
RCH-ACV = tested on: RCH-ACV
REH = tested on: REH
RPMI-8402 = tested on: RPMI-8402
SEM cells = tested on: SEM cells
TANOUE = tested on: TANOUE
TMD5 = tested on: TMD5
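Note: ALL cell lines in 384-well plates, five doses spanning 10,000-fold, each plate scaled between vehicle and 100 µmol/L benzalkonium chloride controls, sDSS an adapted area-under-curve metric.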

Compound: CC[C@]1(O)C[C@H]2CN(CCc3c([nH]c4ccccc34)[C@@](C(=O)OC)(c3cc4c(cc3OC)N(C)[C@H]3[C@@](O)(C(=O)OC)[C@H](OC(C)=O)[C@]5(CC)C=CCN6CC[C@]43[C@@H]65)C2)C1 [Vinblastine] (top concentration 1000 nM)
- selective drug sensitivity score (ALL-SIL): 5.2
- selective drug sensitivity score (COG-LL-317): -0.2
- selective drug sensitivity score (COG-LL-319h): 19.7
- selective drug sensitivity score (COG-LL-355h): -0.6
- selective drug sensitivity score (DND-41): -0.7
- selective drug sensitivity score (HPB-ALL): 19.7
- selective drug sensitivity score (KARPAS-45): -4.2
- selective drug sensitivity score (LC4-1): 13.6
- selective drug sensitivity score (MOLT-14): -2.5
- selective drug sensitivity score (MOLT-16): 0.7
- selective drug sensitivity score (MOLT-4): -3.5
- selective drug sensitivity score (NALM-6): 6.3
- selective drug sensitivity score (P12-ICHIKAWA): -3.5
- selective drug sensitivity score (PEER): -0.9
- selective drug sensitivity score (RCH-ACV): 14.4
- selective drug sensitivity score (REH): 7.1
- selective drug sensitivity score (RPMI-8402): 1.6
- selective drug sensitivity score (SEM cells): 10.8
- selective drug sensitivity score (TANOUE): -9
- selective drug sensitivity score (TMD5): -4.9

Compound: CC[C@]1(O)C[C@H]2CN(CCc3c([nH]c4ccccc34)[C@@](C(=O)OC)(c3cc4c(cc3OC)N(C=O)[C@H]3[C@@](O)(C(=O)OC)[C@H](OC(C)=O)[C@]5(CC)C=CCN6CC[C@]43[C@@H]65)C2)C1 [Vincristine] (top concentration 1000 nM)
- selective drug sensitivity score (ALL-SIL): 13.1
- selective drug sensitivity score (COG-LL-317): 8.92
- selective drug sensitivity score (COG-LL-319h): 16.3
- selective drug sensitivity score (COG-LL-355h): 1.22
- selective drug sensitivity score (DND-41): 2.02
- selective drug sensitivity score (HPB-ALL): 14.1
- selective drug sensitivity score (KARPAS-45): 5.92
- selective drug sensitivity score (LC4-1): 16.7
- selective drug sensitivity score (MOLT-14): 7.72
- selective drug sensitivity score (MOLT-16): 9.52
- selective drug sensitivity score (MOLT-4): 4.02
- selective drug sensitivity score (NALM-6): 10.7
- selective drug sensitivity score (P12-ICHIKAWA): 4.52
- selective drug sensitivity score (PEER): 6.82
- selective drug sensitivity score (RCH-ACV): 17.2
- selective drug sensitivity score (REH): 17.5
- selective drug sensitivity score (RPMI-8402): 4.72
- selective drug sensitivity score (SEM cells): 12.7
- selective drug sensitivity score (TANOUE): -11.1
- selective drug sensitivity score (TMD5): -0.08

Compound: FC(F)c1nc2ccccc2n1-c1nc(N2CCOCC2)nc(N2CCOCC2)n1 [ZSTK474] (top concentration 10000 nM)
- selective drug sensitivity score (ALL-SIL): 2.46
- selective drug sensitivity score (COG-LL-317): 1.46
- selective drug sensitivity score (COG-LL-319h): 4.86
- selective drug sensitivity score (COG-LL-355h): 14.4
- selective drug sensitivity score (DND-41): -3.14
- selective drug sensitivity score (HPB-ALL): -1.04
- selective drug sensitivity score (KARPAS-45): 5.96
- selective drug sensitivity score (LC4-1): -0.44
- selective drug sensitivity score (MOLT-14): -4.14
- selective drug sensitivity score (MOLT-16): 6.46
- selective drug sensitivity score (MOLT-4): 7.26
- selective drug sensitivity score (NALM-6): 11.9
- selective drug sensitivity score (P12-ICHIKAWA): 3.66
- selective drug sensitivity score (PEER): -3.64
- selective drug sensitivity score (RCH-ACV): 28.4
- selective drug sensitivity score (REH): 9.36
- selective drug sensitivity score (RPMI-8402): 5.86
- selective drug sensitivity score (SEM cells): 5.66
- selective drug sensitivity score (TANOUE): -7.04
- selective drug sensitivity score (TMD5): -1.04
